Results taken from the supplement of paper PMC4862054.

How the values were obtained:
Details in all cases: incubation time: 72 h
[1] = tested on: MDA-MB-436; assay: drug sensitivity score (DSS), CellTiter-Glo (DSS (AUC-based score)); higher = stronger drug effect (viability inhibition or cytotoxicity); extreme values may be limits of the assay
How it was run: (§1)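 Using 20 µl of cell suspension per well, breast cancer cell lines were seeded into 384-well plates pre-loaded with compound at 5 concentrations in 10-fold steps across a compound-specific 10,000-fold range. Incubation lasted 72 h, after which CellTox Green fluorescence at 485/520 nm and then CellTiter-Glo luminescence, following 10 min at room temperature, were recorded. Each plate was normalised to 0.1 % DMSO and a positive kill control before the drug sensitivity score was derived from the area under the fitted dose-response curve.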

[2] = tested on: CAL-51; assay: as above
How it was run: as §1

[3] = tested on: HCC1143; assay: as above
How it was run: as §1

[4] = tested on: MDA-MB-231; assay: as above
How it was run: as §1

[5] = tested on: DU-4475; assay: as above
How it was run: as §1

[6] = tested on: MFM-223; assay: as above
How it was run: as §1

[7] = tested on: SK-BR-3; assay: as above
How it was run: as §1

[8] = tested on: BT-549; assay: as above
How it was run: as §1

[9] = tested on: CAL-148; assay: as above
How it was run: as §1

[10] = tested on: CAL-120; assay: as above
How it was run: as §1

[11] = tested on: HCC1599; assay: as above
How it was run: as §1

[12] = tested on: HCC1937; assay: as above
How it was run: as §1

[13] = tested on: CAL-85-1; assay: as above
How it was run: as §1

[14] = tested on: MDA-MB-468; assay: normalised viability (% of control), CellTiter-Blue; higher = more viable cells (about 100 = DMSO control)
How it was run: (§2)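 The reported figure is normalised viability at a single listed concentration of the series. Breast cancer cell lines (20 µl suspension) went onto 384-well plates holding compound in 5 µl medium for 72 h. CellTiter-Blue (2.5 µl, 2 h, 37 °C) was read by fluorescence at 560/590 nm, and each plate was scaled to vehicle at 100 and a positive kill control at 0.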

[15] = tested on: MDA-MB-436; assay: as above
How it was run: as §2

[16] = tested on: BT-474; assay: as above
How it was run: as §2

[17] = tested on: CAL-51; assay: as above
How it was run: as §2

[18] = tested on: HCC1143; assay: as above
How it was run: as §2

[19] = tested on: Hs578T; assay: as above
How it was run: as §2

[20] = tested on: MDA-MB-231; assay: as above
How it was run: as §2

[21] = tested on: DU-4475; assay: as above
How it was run: as §2

[22] = tested on: MFM-223; assay: as above
How it was run: as §2

[23] = tested on: SK-BR-3; assay: as above
How it was run: as §2

[24] = tested on: BT-549; assay: as above
How it was run: as §2

[25] = tested on: CAL-148; assay: as above
How it was run: as §2

[26] = tested on: HCC1599; assay: as above
How it was run: as §2

[27] = tested on: HCC1937; assay: as above
How it was run: as §2

[28] = tested on: MDA-MB-453; assay: as above
How it was run: as §2

[29] = tested on: CAL-85-1; assay: as above
How it was run: as §2

SMILES	drug sensitivity score [1]	drug sensitivity score [2]	drug sensitivity score [3]	drug sensitivity score [4]	drug sensitivity score [5]	drug sensitivity score [6]	drug sensitivity score [7]	drug sensitivity score [8]	drug sensitivity score [9]	drug sensitivity score [10]	drug sensitivity score [11]	drug sensitivity score [12]	drug sensitivity score [13]	normalised viability ([14]; 1000 nM) [%]	normalised viability ([15]; 1000 nM) [%]	normalised viability ([16]; 1000 nM) [%]	normalised viability ([17]; 30 nM) [%]	normalised viability ([18]; 1000 nM) [%]	normalised viability ([19]; 1000 nM) [%]	normalised viability ([20]; 1000 nM) [%]	further results
CNNCc1ccc(C(=O)NC(C)C)cc1 [Procarbazine]	0	0	0	0	0	0	0	0	0	0	0	0	0	124	88.8	114	106	105	103	119	normalised viability ([21]; 30 nM): 107%; normalised viability ([22]; 1000 nM): 95.5%; normalised viability ([23]; 1000 nM): 113%; normalised viability ([24]; 1000 nM): 98.8%; normalised viability ([25]; 30 nM): 101%; normalised viability ([26]; 1000 nM): 88.9%; normalised viability ([27]; 1000 nM): 77.8%; normalised viability ([28]; 30 nM): 114%; normalised viability ([29]; 30 nM): 87.4%
C/C(=C\c1csc(C)n1)[C@@H]1C[C@@H]2O[C@]2(C)CCC[C@H](C)[C@H](O)[C@@H](C)C(=O)C(C)(C)[C@@H](O)CC(=O)O1 [Patupilone]	15	19.1	13.5	6.83	6.14	3.26	15.1	20.5	10.2	5.48	2.26	0.309	16.3								normalised viability ([14]; 100 nM): 49.5%; normalised viability ([15]; 100 nM): 39.5%; normalised viability ([16]; 100 nM): 24.8%; normalised viability ([17]; 3 nM): 103%; normalised viability ([18]; 100 nM): 34.3%; normalised viability ([19]; 100 nM): 14.1%; normalised viability ([20]; 100 nM): 20.1%; normalised viability ([21]; 3 nM): 89.2%; normalised viability ([22]; 100 nM): 45.9%; normalised viability ([23]; 100 nM): 15.8%; normalised viability ([24]; 100 nM): 27.2%; normalised viability ([25]; 3 nM): 57.9%; normalised viability ([26]; 100 nM): 92.2%; normalised viability ([27]; 100 nM): 10.9%; normalised viability ([28]; 3 nM): 63.5%; normalised viability ([29]; 3 nM): 49.4%
CN(C)CCN1C(=O)c2cccc3cc(N)cc(c23)C1=O [Amonafide]	2.32	2.87	1.61	3.06	5.38	0.47	3.61	2.93	4.44	3.03	0.856	2.35	2.16	106	95.7	108	102	86.3	115	67.8	normalised viability ([21]; 30 nM): 83.2%; normalised viability ([22]; 1000 nM): 99.3%; normalised viability ([23]; 1000 nM): 98.7%; normalised viability ([24]; 1000 nM): 102%; normalised viability ([25]; 30 nM): 85.8%; normalised viability ([26]; 1000 nM): 101%; normalised viability ([27]; 1000 nM): 69.2%; normalised viability ([28]; 30 nM): 85.7%; normalised viability ([29]; 30 nM): 79.8%
O=C1NC(=O)[C@@H](c2cn3c4c(cccc24)CCC3)[C@@H]1c1c[nH]c2ccccc12 [Tivantinib]	2.69	1.38	2.06	1.39	0.839	0	4.51	2.94	1.93	0.91	0.956	0	3.66								normalised viability ([14]; 100 nM): 103%; normalised viability ([15]; 100 nM): 56.6%; normalised viability ([16]; 100 nM): 106%; normalised viability ([17]; 3 nM): 104%; normalised viability ([18]; 100 nM): 93%; normalised viability ([19]; 100 nM): 114%; normalised viability ([20]; 100 nM): 105%; normalised viability ([21]; 3 nM): 89.2%; normalised viability ([22]; 100 nM): 87.2%; normalised viability ([23]; 100 nM): 99.9%; normalised viability ([24]; 100 nM): 96.5%; normalised viability ([25]; 3 nM): 93%; normalised viability ([26]; 100 nM): 95.7%; normalised viability ([27]; 100 nM): 64.6%; normalised viability ([28]; 3 nM): 108%; normalised viability ([29]; 3 nM): 95.7%
